Our source for the MIC values is patent publication US4636520A, “Antifungal composition employing pyrrolnitrin in combination with an imidazole compound” (Fujisawa Pharmaceutical Co., Ltd., priority 1984, dated 1987).

Type in all cases: cell-based
One experiment relates to Candida albicans FP581. Nature of the experiment: Antimicrobial test 1 (agar plate MIC), organism e. As for the experimental part:
(§1) Pyrrolnitrin (PY) alone, clotrimazole (CL) alone, a 2:1 mixture of PY and CL, a 1:1 mixture of PY and CL and 1:2 mixture of PY and CL were tested for antimicrobial activity in various strains of microorganisms.
e: Candida albicans FP581
(§2) Composition A: PY (10 mg) was dissolved in 1 ml of ethanol, and the solution is mixed with 9 ml of sterilized water to give a milk-white suspension.
(§3) Composition B: CL (10 mg) was dissolved in 1 ml of N,N-dimethylformamide, and the solution was mixed with 9 ml of sterilized water to give a milk-white suspension.
(§4) Composition C: The above Compositions A and B were mixed together in a volume ratio of 2:1 to give a suspension. […]
(§5) Plates with varied active ingredient concentrations were prepared by admixing each of Compositions A-E prepared in the above manner with Sabouraud agar medium (for test organisms a-f) or Mueller-Hinton medium (for test organism g), followed by appropriate dilution with the medium. These plates were inoculated respectively with each of the test organisms a-g and incubated under the conditions given below, and the minimum inhibitory concentration (MIC; μg/ml) at which the growth of each test organism is inhibited was determined. […]
(§6) The FIC indexes given in the parentheses of Tables 1 and 2 were calculated by using the following formulas. […]

Experiment [1] deals with Candida albicans FP580. Nature of the experiment: Antimicrobial test 1 (agar plate MIC), organism d. Here is the method: as §1
(§7) d: Candida albicans FP580
as §2, §3, §4, §5, §6

The next experiment relates to Candida albicans FP579. Nature of the experiment: Antimicrobial test 1 (agar plate MIC), organism c. Here is the method:
as §1
c: Candida albicans FP579
as §2, §3, §4, §5, §6

A further experiment deals with Candida albicans FP578. Nature of the experiment: Antimicrobial test 1 (agar plate MIC), organism b. As for the experimental part: as §1
b: Candida albicans FP578
as §2, §3, §4, §5, §6

The subject of experiment [2] is Aspergillus oryzae IFO 5239. Nature of the experiment: Antimicrobial test 1 (agar plate MIC), organism f. Particulars: IFO5239, 168 h. As for the experimental part:
as §1
f: Aspergillus oryzae IFO 5239
as §2, §3, §4, §5, §6

In experiment [3] the test system is Staphylococcus epidermidis 91. Nature of the experiment: Antimicrobial test 1 (agar plate MIC), organism g. Here is the method:
as §1
g: Staphylococcus epidermidis 91
as §2, §3, §4, §5, §6

Experiment [4] deals with Candida albicans Yu-1200. Nature of the experiment: Antimicrobial test 1 (agar plate MIC), organism a. As for the experimental part: as §1
(§8) a: Candida albicans Yu-1200
as §2, §3, §4, §5, §6

The subject of experiment [5] is Candida albicans Yu-1200. Nature of the experiment: Antimicrobial test 2 (agar plate MIC), organism a. Here is the method: (§9) Pyrrolnitrin (PY) alone, clotrimazole (CL) alone, miconazole alone, econazole alone, oxyconazole alone and 1:1 mixtures of PY and CL, PY and miconazole, PY and econazole and PY and oxyconazole were test for antimicrobial activity in various strains of microorganisms.
as §8
(§10) Compositions A was prepared as stated above.
(§11) Composition F, G and H: A milk-white suspension containing 10 mg of miconazole (Composition F), a transparent solution containing 10 mg of econazole (Composition G) and a milk-white suspension containing 10 mg of oxyconazole (Composition H) were respectively prepared in a similar way to that of Composition B.
(§12) Composition I: The above-mentioned Compositions A and F were mixed together in a volume ratio of 1:1 to give a suspension.
(§13) Composition J: The above-mentioned Compositions A and G were mixed together in a volume ratio of 1:1 to give a suspension.
(§14) Composition K: The above-mentioned Compositions A and H were mixed together in a volume ratio of 1:1 to give a suspension.
(§15) Plates with varied active ingredient concentrations were prepared by admixing each of Compositions A and F to K prepared in the above manner with Sabouraud agar medium, followed by appropriate dilution with the medium. These plates were inoculated respectively with each of the test organisms a and d and incubated at 30° C. for 48 hours. The minimum inhibitory concentration (MIC; μg/ml) at which the growth of each test organism is inhibited was determined.
(§16) The FIC indexes given in the parentheses of Tables 1 and 2 were calculated by using the following formulas. [formula]

Experiment [6] has as its system Candida albicans FP580. Nature of the experiment: Antimicrobial test 2 (agar plate MIC), organism d. Here is the method:
as §9, §7, §10, §11, §12, §13, §14, §15, §16

Molecules are shown by their SMILES. ≈ marks a conversion by molar mass, not a printed value. Where two headings read alike, the source gives them in different places. Some results are limits rather than exact numbers.

The MIC is the smallest concentration in the dilution series that meets the test's criterion for growth inhibition. With `Clc1ccccc1C(c1ccccc1)(c1ccccc1)n1ccnc1` [Composition B, 1-[(2-chlorophenyl)diphenylmethyl]-1H-imidazole], the minimal inhibitory concentration (MIC) is 25 µg/mL (≈ 72.5 µM) against Candida albicans FP581 (Candida albicans, FP581, 24 h); 6.25 µg/mL (≈ 18.1 µM) against Candida albicans FP580 [1] (Candida albicans, FP580, 24 h); 6.25 µg/mL (≈ 18.1 µM) against Candida albicans FP579 (Candida albicans, FP579, 24 h); 6.25 µg/mL (≈ 18.1 µM) in the experiment on Candida albicans FP578 (Candida albicans, FP578, 24 h); 12.5 µg/mL (≈ 36.2 µM) in experiment [2] (Aspergillus oryzae); 25 µg/mL (≈ 72.5 µM) in [3] (Staphylococcus epidermidis, 91, 20 h). This molecule yielded an MIC against Candida albicans Yu-1200 [4] (Candida albicans, YU1200, 24 h) of 6.25 µg/mL (≈ 18.1 µM).

Consider `Clc1ccc(COC(Cn2ccnc2)c2ccc(Cl)cc2Cl)c(Cl)c1` (stereo not shown) [Composition F, 1-[2-(2,4-dichlorophenyl)-2-[(2,4-dichlorophenyl)methoxy]ethyl]-1H-imidazole], for which the minimum inhibitory concentration (MIC) against Candida albicans Yu-1200 [5] (Candida albicans, YU1200, 48 h) turned out to be 6.25 µg/mL (≈ 15 µM); in the experiment with Candida albicans FP580 [6] (Candida albicans, FP580, 48 h), 12.5 µg/mL (≈ 30 µM).

Regarding `Clc1ccc(COC(Cn2ccnc2)c2ccc(Cl)cc2Cl)cc1` (stereo not shown) [Composition G, 1-[2-[(4-chlorophenyl)methoxy]-2-(2,4-dichlorophenyl)ethyl]-1H-imidazole], the MIC against Candida albicans Yu-1200 [5] (Candida albicans, YU1200, 48 h) is 6.25 µg/mL (≈ 16.4 µM); in the experiment with Candida albicans FP580 [6] (Candida albicans, FP580, 48 h), 6.25 µg/mL (≈ 16.4 µM).

For `Clc1ccc(C(Cn2ccnc2)=NOCc2ccc(Cl)cc2Cl)cc1` [Composition H], the MIC in the experiment with Candida albicans Yu-1200 [5] (Candida albicans Yu-1200, Sabouraud agar, 30° C., 48 hours) amounted to 25 µg/mL (≈ 63.3 µM); with Candida albicans FP580 [6] (Candida albicans FP580, Sabouraud agar, 30° C., 48 hours), 25 µg/mL (≈ 63.3 µM).

For `O=[N+]([O-])c1c(Cl)cccc1-c1c[nH]cc1Cl` [Composition A, 3-(2-nitro-3-chlorophenyl)-4-chloropyrrole], the MIC with Candida albicans FP581 (Candida albicans FP581, Sabouraud agar, 37° C., 24 hours, read-out: MIC) is over 100 µg/mL; in the experiment with Candida albicans FP580 [1] (Candida albicans FP580, Sabouraud agar, 37° C., 24 hours, read-out: MIC), 1.56 µg/mL (≈ 6.07 µM); with Candida albicans FP579 (Candida albicans FP579, Sabouraud agar, 37° C., 24 hours, read-out: MIC) it was 25 µg/mL (≈ 97.2 µM); with Candida albicans FP578 (Candida albicans FP578, Sabouraud agar, 37° C., 24 hours, read-out: MIC), 3.13 µg/mL (≈ 12.2 µM); in experiment [2] (Aspergillus oryzae IFO 5239, Sabouraud agar, 30° C., 1 week, read-out: MIC) it was over 100 µg/mL; in [3] (Staphylococcus epidermidis 91, Mueller-Hinton medium, 37° C., 20 hours, read-out: MIC), 100 µg/mL (≈ 389 µM). Also, the MIC in the experiment with Candida albicans Yu-1200 [4] (YU1200, Candida albicans Yu-1200, Sabouraud agar, 37° C., 24 hours, read-out: MIC) came out at 100 µg/mL (≈ 389 µM); with Candida albicans Yu-1200 [5] (YU1200, Candida albicans Yu-1200, Sabouraud agar, 30° C., 48 hours, read-out: MIC), 100 µg/mL (≈ 389 µM); with Candida albicans FP580 [6] (Candida albicans FP580, Sabouraud agar, 30° C., 48 hours, read-out: MIC) it was 0.78 µg/mL (≈ 3.03 µM).
